From patent US20260184712A1, “Heterocyclic Compounds as ENT Inhibitors and Compounds for Use in the Treatment of Cancers” (iTeos Belgium SA, priority 2022, published 2026) come the findings set out here.

This test has as its target T1, human ENT1 (Homo sapiens, UniProt Q99808).
T1 construct: JAR cells expressing ENT1 were purchased from ATCC; host or cells: JAR cells
T1 sequence (Q99808 1-456): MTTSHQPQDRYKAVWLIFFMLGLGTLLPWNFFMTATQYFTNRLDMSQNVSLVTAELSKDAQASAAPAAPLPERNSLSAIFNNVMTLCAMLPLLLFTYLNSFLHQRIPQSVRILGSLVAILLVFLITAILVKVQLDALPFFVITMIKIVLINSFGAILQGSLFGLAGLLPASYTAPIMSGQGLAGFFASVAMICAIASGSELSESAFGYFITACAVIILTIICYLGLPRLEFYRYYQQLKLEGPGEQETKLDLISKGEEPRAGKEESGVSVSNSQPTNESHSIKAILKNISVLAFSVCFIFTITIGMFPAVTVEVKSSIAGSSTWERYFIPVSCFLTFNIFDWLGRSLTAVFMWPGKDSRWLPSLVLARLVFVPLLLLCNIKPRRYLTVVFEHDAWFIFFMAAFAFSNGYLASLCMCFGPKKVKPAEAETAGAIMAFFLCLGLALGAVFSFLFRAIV
The experiment in a line: ENT1 binding assay (competition with Sahenta-DY647 on JAR cells). Conditions: competition with SAHENTA-DY647 binding; IC50 categorized; read-out: Binding Assay IC50. The protocol:
Compounds of the present disclosure were assayed to show ability to bind to human ENT1. The assay is a competition between a compound of interest and Sahenta-DY647, an ENT1 inhibitor that emits fluorescence (Ex=630 nm, Em=670 nm). By measuring the fluorescence at the end of the assay, one can assess the binding potency of the compounds tested. The compounds of the present disclosure were tested and compared to known ENT inhibitors, dilazep and NBMPR:
JAR cells expressing ENT1 were purchased from ATCC® (HTB-144TM). Cells were cultured in RPMI 1640 medium (LONZA®, #BE12-702F/U1) supplemented with 10% FBS (GIBCO®, #10270-106), 10 mM Hepes (LONZA®, #BE17-737E), 1 mM Sodium Pyruvate (LONZA®, #BE13-115E), and 2% Penicillin/Streptomycin (LONZA®, #DE17-603E) at 37° C. and 5% CO2.
The assay was conducted with the following buffer on the day of the assay: HBSS (LONZA®, #LO-527F) supplemented with 10 mM Hepes (LONZA®, #BE17-737E) and 0.1% BSA (Miltenyi®, #130-091-376).
JAR cells were resuspended in the described buffer. The compounds of interest and Sahenta-DY647 were diluted 200× with the described buffer.
A total of 50,000 cells were pre-incubated for 30 min at 4° C. with the compounds of the present disclosure before adding the corresponding amount of Sahenta-DY647 (100 nM) to the minimal concentration at Bmax and incubating for an additional 30 min at 4° C. The total volume of the reaction was 100 μL (50 μL of cells, 25 μL of the compounds of the present disclosure, and 25 μL of Sahenta-DY647) in a U-bottom 96 well plate (Greiner®, #650-180). The plates were washed 2× by centrifugation (4 min, 400 rcf at 4° C.) in the same buffer. Cells were re-suspended in 70 μL of the buffer and 50 μL was transferred to a Black 384 Optiplate (PerkinElmer®, #6007279). Fluorescence (Ex=630 nm, Em=670 nm) was acquired on a Spectramax i3x (Molecular Devices®).
Dose-response data from the compounds were analyzed with Graphpad Prism 9.1.1@software, using nonlinear regression applied to a sigmoidal dose-response model and the following equation:
Y=Bottom+(Top-Bottom)/(1+10^((LogIC50−X)*HillSlope)), with a shared bottom and top between the test reagent and dipyridamole.
Data from multiple experiments were compiled by taking the average pIC50 value for the reagent in question±the standard deviation (s.d.) and expressing it as an average IC50 value in nM.
The inhibitory effect of the test compound was expressed as a percentage of the inhibition of SAHENTA-DY647 binding.
One may read the IC50 as the concentration at which inhibition is half-maximal. As to `CCOC(=O)/C=C/[C@H]1O[C@@H](n2cnc3c(OCc4ccc([N+](=O)[O-])cc4)ncnc32)[C@H](O)[C@@H]1O` [Compound 169], the IC50 is 20 to 500 nM.

Consider `C[C@H]1O[C@@H](n2c(NC3CCC(O)CC3)nc3c(N4CCc5ccc([N+](=O)[O-])cc5C4)ncnc32)[C@H](O)[C@@H]1O` (some centres unmarked) [Compound 140], for which the IC50 is less than 1 nM.

As to `C[C@H]1O[C@@H](n2cnc3c(SCc4ccc(C(=O)N5CCCC5)cc4)ncnc32)[C@H](O)[C@@H]1O` [Compound 390], the IC50 is greater than 500 nM.

In the case of `C[C@H]1O[C@@H](n2cnc3c(C(=O)N4CC(c5ccc([N+](=O)[O-])cc5)C4)ncnc32)[C@H](O)[C@@H]1O` [Compound 266], the IC50 was greater than 500 nM.

As to `C[C@H]1O[C@@H](n2cnc3c(OCc4ccc(-n5ccnc5)cc4)ncnc32)[C@H](O)[C@@H]1O` [Compound 316], the IC50 was greater than 500 nM.

For `C[C@H]1O[C@@H](n2c(NC3CCC(O)CC3)nc3c(OCc4ccc(C#N)cc4)ncnc32)[C@H](O)[C@@H]1O` (some centres unmarked) [Compound 52], the IC50 is less than 1 nM.

As to `C[C@H]1O[C@@H](n2cnc3c(OCc4ccc(F)cc4)ncnc32)[C@H](O)[C@@H]1O` [Compound 202], the IC50 lay within 20 to 500 nM.

For the compound `C[C@H]1O[C@@H](n2cnc3c(C(=O)N4CCC4c4ccccc4)ncnc32)[C@H](O)[C@@H]1O` (some centres unmarked) [Compound 422], the IC50 was greater than 500 nM.

For the compound `COCCCNc1nc2c(N3CCc4ccc([N+](=O)[O-])cc4C3)ncnc2n1[C@@H]1O[C@H](C)[C@@H](O)[C@H]1O` [Compound 146], the IC50 was 1 to 20 nM.

For `C[C@H]1O[C@@H](n2cnc3c(C4CCc5ccc([N+](=O)[O-])cc5C4)ncnc32)[C@H](O)[C@@H]1O` (some centres unmarked) [Compound 227], the IC50 is greater than 500 nM.

In the case of `C[C@H]1O[C@@H](n2c(NC3CC3)nc3c(N4CCc5ccc(C#N)cc5C4)ncnc32)[C@H](O)[C@@H]1O` [Compound 164], the IC50 was in the range of 20 to 500 nM.

Turning to `C[C@H]1O[C@@H](n2cnc3c(C(=O)N4CCc5ccc([N+](=O)[O-])cc5C4)ncnc32)[C@H](O)[C@@H]1O` [Compound 360], the IC50 was greater than 500 nM.

On to `C[C@H]1O[C@@H](n2c(N[C@H]3CC[C@@](C)(O)CC3)nc3c(OCc4ccc(C#N)cc4)ncnc32)[C@H](O)[C@@H]1O` [Compound 131], for which the IC50 is 1 to 20 nM.

For `C[C@H]1O[C@@H](n2cnc3c(CN4Cc5ccc(C#N)cc5C4)ncnc32)[C@H](O)[C@@H]1O` [Compound 317], the IC50 was greater than 500 nM.

In the case of `C[C@H]1O[C@@H](n2cnc3c(NCc4ccc(OCCN(C)C)cc4)ncnc32)[C@H](O)[C@@H]1O` [Compound 388], the IC50 was greater than 500 nM.

As to `O=[N+]([O-])c1ccc(CSc2ncnc3c2ncn3[C@@H]2O[C@H](CO)C[C@H]2O)cc1` [Compound 216], the IC50 is 20 to 500 nM.

As for `C[C@H]1O[C@@H](n2cnc3c(OCCc4cnc(C#N)c(F)c4)ncnc32)[C@H](O)[C@@H]1O` [Compound 265], the IC50 is greater than 500 nM.

With `C[C@H]1O[C@@H](n2cnc3c(OCCc4ccc(C#N)c(F)c4)ncnc32)[C@H](O)[C@@H]1O` [Compound 232], the IC50 is greater than 500 nM.

Regarding `Cc1cc(CSc2ncnc3c2ncn3[C@@H]2O[C@H](C)[C@@H](O)[C@H]2O)n(C)n1` [Compound 289], the IC50 was greater than 500 nM.

With `C[C@H]1O[C@@H](n2c(NCCCS(C)(=O)=O)nc3c(OCc4ccc([N+](=O)[O-])cc4)ncnc32)[C@H](O)[C@@H]1O` [Compound 60], the IC50 lay within 1 to 20 nM.

Regarding `C[C@H]1O[C@@H](n2cnc3c(OCc4ccc(F)c(F)c4F)ncnc32)[C@H](O)[C@@H]1O` [Compound 238], the IC50 was greater than 500 nM.

`C[C@H]1O[C@@H](n2cnc3c(OCc4cc(Cl)cc(Cl)c4)ncnc32)[C@H](O)[C@@H]1O` [Compound 217]: the IC50 fell in the range of 20 to 500 nM.

Turning to `Cc1cccc(C)c1CNc1ncnc2c1ncn2[C@@H]1O[C@H](C)[C@@H](O)[C@H]1O` [Compound 331], the IC50 is greater than 500 nM.

For `C[C@H]1O[C@@H](n2c(NCCO)nc3c(N4CCc5ccc(C#N)cc5C4)ncnc32)[C@H](O)[C@@H]1O` [Compound 167], the IC50 was 20 to 500 nM.

Regarding `CC1OC(n2c(NC3CC(C)(O)C3)nc3c(OCc4ccc([N+](=O)[O-])cc4)ncnc32)C(O)C1O` (single isomer, unassigned) [Compound 134], the IC50 was less than 1 nM.

Take `C[C@H]1O[C@@H](n2cnc3c(OCc4ccc([N+](=O)[O-])cn4)ncnc32)[C@H](O)[C@@H]1O` [Compound 281]: the IC50 was greater than 500 nM.

Turning to `C[C@H]1O[C@@H](n2c(N[C@H]3CC[C@@](C)(O)CC3)nc3c(OCc4ccc(OC(F)F)cc4)ncnc32)[C@H](O)[C@@H]1O` [Compound 122], the IC50 was 1 to 20 nM.

For the compound `CC(C)NC(=O)c1ccc(CNc2ncnc3c2ncn3[C@@H]2O[C@H](C)[C@@H](O)[C@H]2O)cc1` [Compound 386], the IC50 is greater than 500 nM.

For the compound `C[C@H]1O[C@@H](n2c(N[C@H]3CC[C@](C)(O)CC3)nc3c(N4CCc5ccc([N+](=O)[O-])cc5C4)ncnc32)[C@H](O)[C@@H]1O` [Compound 144], the IC50 fell in the range of 1 to 20 nM.

As for `C[C@H]1O[C@@H](n2c(NCCCS(C)(=O)=O)nc3c(N4CCc5ccc([N+](=O)[O-])cc5C4)ncnc32)[C@H](O)[C@@H]1O` [Compound 143], the IC50 was less than 1 nM.

`C[C@H]1O[C@@H](n2cnc3c(COCc4ccc(Cl)cc4)ncnc32)[C@H](O)[C@@H]1O` [Compound 290]: the IC50 was greater than 500 nM.

As to `C[C@H]1O[C@@H](n2cnc3c(OCc4ccccc4C(F)(F)F)ncnc32)[C@H](O)[C@@H]1O` [Compound 323], the IC50 was greater than 500 nM.

With `C[C@H]1O[C@@H](n2c(N[C@H]3CC[C@@H](O)CC3)nc3c(N4CCc5ccccc5C4)ncnc32)[C@H](O)[C@@H]1O` [Compound 195], the IC50 lay in the range of 20 to 500 nM.

On to `C[C@H]1O[C@@H](n2c(Nc3cnn(C)c3)nc3c(N4CCc5ccc([N+](=O)[O-])cc5C4)ncnc32)[C@H](O)[C@@H]1O` [Compound 142], for which the IC50 was less than 1 nM.

With `C[C@H]1O[C@@H](n2c(-c3cn[nH]c3)nc3c(OCc4ccc([N+](=O)[O-])cc4)ncnc32)[C@H](O)[C@@H]1O` [Compound 208], the IC50 was 20 to 500 nM.

`C[C@H]1O[C@@H](n2cnc3c(NCc4ccc(OC5CCOCC5)cc4)ncnc32)[C@H](O)[C@@H]1O` [Compound 389]: the IC50 was greater than 500 nM.

Take `O=[N+]([O-])c1ccc(COc2ncnc3c2ncn3[C@@H]2O[C@H](COCCO)[C@@H](O)[C@H]2O)cc1` [Compound 191]: the IC50 was in the range of 20 to 500 nM.

On to `C[C@H]1O[C@@H](n2c(NCCN3CCCC3)nc3c(OCc4ccc([N+](=O)[O-])cc4)ncnc32)[C@H](O)[C@@H]1O` [Compound 32], for which the IC50 lay in the range of 20 to 500 nM.

On to `C[C@H]1O[C@@H](n2cnc3c(CO[C@H]4CC[C@H](C(F)(F)F)CC4)ncnc32)[C@H](O)[C@@H]1O` [Compound 371], for which the IC50 was greater than 500 nM.

For `C[C@H]1O[C@@H](n2cnc3c(N4CCN(c5ccc([N+](=O)[O-])cc5)CC4)ncnc32)[C@H](O)[C@@H]1O` [Compound 299], the IC50 is greater than 500 nM.

Regarding `C[C@H]1O[C@@H](n2cnc3c(NCc4ccc(NS(C)(=O)=O)cc4)ncnc32)[C@H](O)[C@@H]1O` [Compound 261], the IC50 is greater than 500 nM.

Consider `CC(Oc1ncnc2c1ncn2[C@@H]1O[C@H](C)[C@@H](O)[C@H]1O)c1ccc(OC(F)F)cc1` (some centres unmarked) [Compound 263], for which the IC50 was greater than 500 nM.

Consider `C[C@H]1O[C@@H](n2c(NCC3CCOC3)nc3c(OCc4ccc(Cl)cc4)ncnc32)[C@H](O)[C@@H]1O` (some centres unmarked) [Compound 110], for which the IC50 lay within 20 to 500 nM.

Consider `Cc1nnc(CSc2ncnc3c2ncn3[C@@H]2O[C@H](C)[C@@H](O)[C@H]2O)o1` [Compound 398], for which the IC50 was greater than 500 nM.
